# Reference: ChEMBL document CHEMBL1201861, “Genomics of Drug Sensitity in Cancer screening data, Wellcome Trust Sanger Institute”
# How the values were obtained:
# Assay in all cases: cells
# [1] = system: EW-3; type: functional, cell-based, Homo sapiens; conditions: Homo sapiens, EW-3;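 further: cell viability assay read-out, IC50 reflects inhibition of growth of the EW-3 cells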
# Description: SANGER: Inhibition of human EW-3 cell growth in a cell viability assay.
# [2] = system: GT3TKB; type: functional, cell-based, Homo sapiens; conditions: Homo sapiens, GT3TKB;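 further: growth inhibition of the cell line, read out with a cell viability assay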
# Description: SANGER: Inhibition of human GT3TKB cell growth in a cell viability assay.
# [3] = system: RXF 393; type: functional, cell-based, Homo sapiens; conditions: Homo sapiens, RXF 393;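 further: growth inhibition of human RXF 393 cells, read out with a cell viability assay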
# Description: SANGER: Inhibition of human RXF393 cell growth in a cell viability assay.
# [4] = system: SBC-1; type: functional, cell-based, Homo sapiens; conditions: Homo sapiens, SBC-1;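 further: cell viability assay measuring growth inhibition of the SBC-1 cell line, IC50 being the concentration that halves growth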
# Description: SANGER: Inhibition of human SBC-1 cell growth in a cell viability assay.
# [5] = system: CTB-1; type: functional, cell-based, Homo sapiens; conditions: Homo sapiens, CTB-1
# Description: SANGER: Inhibition of human CTB-1 cell growth in a cell viability assay.
# [6] = system: P30-OHK; type: functional, cell-based, Homo sapiens; conditions: Homo sapiens, P30-OHK;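 further: growth inhibition of the P30-OHK cell line, read out with a cell viability assay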
# Description: SANGER: Inhibition of human P30-OHK cell growth in a cell viability assay.
# [7] = system: EW-13; type: functional, cell-based, Homo sapiens; conditions: Homo sapiens, EW-13; read-out: IC50;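 further: growth inhibition of EW-13 cells, read out with a cell viability assay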
# Description: SANGER: Inhibition of human EW-13 cell growth in a cell viability assay.
# [8] = system: A3-KAW; type: functional, cell-based, Homo sapiens; conditions: Homo sapiens, A3-KAW;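 further: growth inhibition of human A3-KAW cells, read out with a cell viability assay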
# Description: SANGER: Inhibition of human A3-KAW cell growth in a cell viability assay.
# [9] = system: SK-NEP-1; type: functional, cell-based, Homo sapiens; conditions: Homo sapiens, SK-NEP-1;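 further: growth inhibition of human SK-NEP-1 cells, read out by a cell viability assay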
# Description: SANGER: Inhibition of human SK-NEP-1 cell growth in a cell viability assay.
# [10] = system: OS-RC-2; type: functional, cell-based, Homo sapiens; conditions: Homo sapiens, OS-RC-2;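 further: growth inhibition of human OS-RC-2 cells, measured by a cell viability assay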
# Description: SANGER: Inhibition of human OS-RC-2 cell growth in a cell viability assay.
# [11] = system: COLO-684; type: functional, cell-based, Homo sapiens; conditions: Homo sapiens, COLO-684
# Description: SANGER: Inhibition of human COLO-684 cell growth in a cell viability assay.
# [12] = system: ML-2; type: functional, cell-based, Homo sapiens; conditions: Homo sapiens, ML-2;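 further: growth inhibition of ML-2 cells, measured with a cell viability readout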
# Description: SANGER: Inhibition of human ML-2 cell growth in a cell viability assay.
# [13] = system: OVCAR-4; type: functional, cell-based, Homo sapiens; conditions: Homo sapiens, OVCAR-4;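 further: growth inhibition of human OVCAR-4 cells, measured with a cell viability assay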
# Description: SANGER: Inhibition of human OVCAR-4 cell growth in a cell viability assay.
# [14] = system: NOS-1; type: functional, cell-based, Homo sapiens; conditions: Homo sapiens, NOS-1;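 further: growth inhibition of the human NOS-1 cell line, read out with a cell viability assay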
# Description: SANGER: Inhibition of human NOS-1 cell growth in a cell viability assay.
# [15] = system: SHP77; type: functional, cell-based, Homo sapiens, SHP-77; conditions: Homo sapiens, SHP77;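 further: growth inhibition of human SHP-77 cells measured by a cell viability assay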
# Description: SANGER: Inhibition of human SHP-77 cell growth in a cell viability assay.
# [16] = system: CAS-1; type: functional, cell-based, Homo sapiens; conditions: Homo sapiens, CAS-1;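 further: growth inhibition of CAS-1 cells, measured with a cell viability assay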
# Description: SANGER: Inhibition of human CAS-1 cell growth in a cell viability assay.
# [17] = system: DSH1; type: functional, cell-based; conditions: Homo sapiens;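 further: growth inhibition of human DSH1 cells, measured with a cell viability readout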
# Description: SANGER: Inhibition of human DSH1 cell growth in a cell viability assay.
# [18] = system: JAR; type: functional, cell-based, Homo sapiens; conditions: Homo sapiens, JAR;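 further: growth inhibition of human JAR cells determined with a cell viability assay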
# Description: SANGER: Inhibition of human JAR cell growth in a cell viability assay.
# [19] = system: U-266; type: functional, cell-based, Homo sapiens; conditions: Homo sapiens, U-266
# Description: SANGER: Inhibition of human U-266 cell growth in a cell viability assay.
# [20] = system: GCIY; type: functional, cell-based, Homo sapiens; conditions: Homo sapiens, GCIY;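 further: growth inhibition of the human GCIY cell line, read out by a cell viability assay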
# Description: SANGER: Inhibition of human GCIY cell growth in a cell viability assay.
# [21] = system: L-363; type: functional, cell-based, Homo sapiens; conditions: Homo sapiens, L-363
# Description: SANGER: Inhibition of human L-363 cell growth in a cell viability assay.
# [22] = system: NCI-H446; type: functional, cell-based, Homo sapiens; conditions: Homo sapiens, NCI-H446;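 further: growth inhibition of NCI-H446 cells determined by a cell viability assay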
# Description: SANGER: Inhibition of human NCI-H446 cell growth in a cell viability assay.
# [23] = system: A4-Fuk; type: functional, cell-based, Homo sapiens; conditions: Homo sapiens, A4-Fuk;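 further: growth inhibition of A4-Fuk cells, read out by a cell viability assay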
# Description: SANGER: Inhibition of human A4-Fuk cell growth in a cell viability assay.
# [24] = system: BE-13; type: functional, cell-based, Homo sapiens; conditions: Homo sapiens, BE-13;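 further: growth inhibition of human BE-13 cells, measured with a cell viability assay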
# Description: SANGER: Inhibition of human BE-13 cell growth in a cell viability assay.
# [25] = system: NB10; type: functional, cell-based, Homo sapiens; conditions: Homo sapiens, NB10;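 further: growth inhibition of NB10 cells, read out by a cell viability assay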
# Description: SANGER: Inhibition of human NB10 cell growth in a cell viability assay.
# [26] = system: TGBC1TKB; type: functional, cell-based, Homo sapiens; conditions: Homo sapiens, TGBC1TKB;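 further: growth inhibition of TGBC1TKB cells, read out by a cell viability assay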
# Description: SANGER: Inhibition of human TGBC1TKB cell growth in a cell viability assay.
# [27] = system: LU-139; type: functional, cell-based, Homo sapiens; conditions: Homo sapiens, LU-139
# Description: SANGER: Inhibition of human LU-139 cell growth in a cell viability assay.
# [28] = system: JVM-2; type: functional, cell-based, Homo sapiens; conditions: Homo sapiens, JVM-2;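 further: growth inhibition of JVM-2 cells determined by a cell viability assay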
# Description: SANGER: Inhibition of human JVM-2 cell growth in a cell viability assay.
# [29] = system: LB1047-RCC; type: functional, cell-based, Homo sapiens; conditions: Homo sapiens, LB1047-RCC;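 further: inhibition of cell growth, determined with a cell viability assay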
# Description: SANGER: Inhibition of human LB1047-RCC cell growth in a cell viability assay.
# [30] = system: IST-MES1; type: functional, cell-based, Homo sapiens; conditions: Homo sapiens, IST-MES1;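 further: growth inhibition of IST-MES1 cells, measured with a cell viability assay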
# Description: SANGER: Inhibition of human IST-MES1 cell growth in a cell viability assay.
# [31] = system: HAL-01; type: functional, cell-based, Homo sapiens; conditions: Homo sapiens, HAL-01;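 further: growth inhibition of human HAL-01 cells, read out with a cell viability assay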
# Description: SANGER: Inhibition of human HAL-01 cell growth in a cell viability assay.
# [32] = system: NMC-G1; type: functional, cell-based, Homo sapiens; conditions: Homo sapiens, NMC-G1;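 further: growth inhibition of the NMC-G1 cell line, measured with a cell viability read-out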
# Description: SANGER: Inhibition of human NMC-G1 cell growth in a cell viability assay.
# [33] = system: MC116; type: functional, cell-based, Homo sapiens; conditions: Homo sapiens, MC116;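 further: growth inhibition of MC116 cells, read out with a cell viability assay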
# Description: SANGER: Inhibition of human MC116 cell growth in a cell viability assay.
# [34] = system: SK-N-FI; type: functional, cell-based, Homo sapiens; conditions: Homo sapiens, SK-N-FI;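 further: cell viability assay measuring growth inhibition of human SK-N-FI cells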
# Description: SANGER: Inhibition of human SK-N-FI cell growth in a cell viability assay.
# [35] = system: SNU1; type: functional, cell-based, Homo sapiens; conditions: Homo sapiens, SNU1;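 further: growth inhibition of human NCI-SNU-1 cells, measured with a cell viability assay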
# Description: SANGER: Inhibition of human NCI-SNU-1 cell growth in a cell viability assay.
# [36] = system: LAMA-84; type: functional, cell-based, Homo sapiens; conditions: Homo sapiens, LAMA-84;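 further: growth inhibition of LAMA-84 cells, read out with a cell viability assay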
# Description: SANGER: Inhibition of human LAMA-84 cell growth in a cell viability assay.
# [37] = system: SW 962; type: functional, cell-based, Homo sapiens; conditions: Homo sapiens, SW 962;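 further: growth inhibition of human SW962 cells, read out by a cell viability assay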
# Description: SANGER: Inhibition of human SW962 cell growth in a cell viability assay.
# [38] = system: NCI-H82; type: functional, cell-based, Homo sapiens; conditions: Homo sapiens, NCI-H82;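 further: growth inhibition of NCI-H82 cells, measured with a cell viability readout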
# Description: SANGER: Inhibition of human NCI-H82 cell growth in a cell viability assay.
# [39] = system: ES4; type: functional, cell-based, Homo sapiens; conditions: Homo sapiens, ES4;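 further: growth inhibition of human ES4 cells, read out by a cell viability assay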
# Description: SANGER: Inhibition of human ES4 cell growth in a cell viability assay.
# [40] = system: HCE-T; type: functional, cell-based, Homo sapiens; conditions: Homo sapiens, HCE-T;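 further: cell viability assay read-out, reporting inhibition of HCE-T cell growth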
# Description: SANGER: Inhibition of human HCE-T cell growth in a cell viability assay.
# [41] = system: 697; type: functional, cell-based, Homo sapiens; conditions: Homo sapiens
# Description: SANGER: Inhibition of human 697 cell growth in a cell viability assay.
# [42] = system: KE-37; type: functional, cell-based, Homo sapiens; conditions: Homo sapiens, KE-37;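 further: growth inhibition of KE-37 cells, read out with a cell viability assay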
# Description: SANGER: Inhibition of human KE-37 cell growth in a cell viability assay.
# [43] = system: RKO; type: functional, cell-based, Homo sapiens; conditions: Homo sapiens, RKO;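 further: growth inhibition of human RKO cells, read out with a cell viability assay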
# Description: SANGER: Inhibition of human RKO cell growth in a cell viability assay.
# [44] = system: NCI-H526; type: functional, cell-based, Homo sapiens; conditions: Homo sapiens, NCI-H526;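 further: growth inhibition of the human NCI-H526 cell line, measured by a cell viability assay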
# Description: SANGER: Inhibition of human NCI-H526 cell growth in a cell viability assay.
# [45] = system: ATN-1; type: functional, cell-based, Homo sapiens; conditions: Homo sapiens, ATN-1;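 further: growth inhibition of human ATN-1 cells, read out with a cell viability assay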
# Description: SANGER: Inhibition of human ATN-1 cell growth in a cell viability assay.
# [46] = system: DJM-1; type: functional, cell-based, Homo sapiens; conditions: Homo sapiens, DJM-1;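 further: growth inhibition of human DJM-1 cells, read out by a cell viability assay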
# Description: SANGER: Inhibition of human DJM-1 cell growth in a cell viability assay.
# [47] = system: TK-10; type: functional, cell-based, Homo sapiens; conditions: Homo sapiens, TK-10;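 further: growth inhibition of TK-10 cells, read out in a cell viability assay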
# Description: SANGER: Inhibition of human TK10 cell growth in a cell viability assay.
# [48] = system: KURAMOCHI; type: functional, cell-based, Homo sapiens; conditions: Homo sapiens, KURAMOCHI;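 further: growth inhibition of KURAMOCHI cells, read out with a cell viability assay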
# Description: SANGER: Inhibition of human KURAMOCHI cell growth in a cell viability assay.
# [49] = system: NCI-H747; type: functional, cell-based, Homo sapiens; conditions: Homo sapiens, NCI-H747;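 further: growth inhibition of human NCI-H747 cells, read out by a cell viability assay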
# Description: SANGER: Inhibition of human NCI-H747 cell growth in a cell viability assay.
# [50] = system: EW-1; type: functional, cell-based, Homo sapiens; conditions: Homo sapiens, EW-1;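 further: growth inhibition of the human EW-1 cell line, read out by a cell viability assay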
# Description: SANGER: Inhibition of human EW-1 cell growth in a cell viability assay.
structure (smiles),measurement,setting,value
CC(C)C[C@H](NC(=O)[C@H](Cc1ccccc1)NC(=O)c1cnccn1)B(O)O [BORTEZOMIB],IC50,[1],> 20 nM
same,IC50,[2],2.12 nM
same,IC50,[3],0.914 nM
same,IC50,[4],5.01 nM
same,IC50,[5],9.67 nM
same,IC50,[6],> 20 nM
same,IC50,[7],> 20 nM
same,IC50,[8],1.28 nM
same,IC50,[9],9.01 nM
same,IC50,[10],0.44 nM
same,IC50,[11],3.66 nM
same,IC50,[12],0.821 nM
same,IC50,[13],0.289 nM
same,IC50,[14],2.11 nM
same,IC50,[15],> 20 nM
same,IC50,[16],1.37 nM
same,IC50,[17],0.48 nM
same,IC50,[18],16.1 nM
same,IC50,[19],1.76 nM
same,IC50,[20],1.62 nM
same,IC50,[21],7.7 nM
same,IC50,[22],> 20 nM
same,IC50,[23],0.623 nM
same,IC50,[24],1.93 nM
same,IC50,[25],2.32 nM
same,IC50,[26],1.71 nM
same,IC50,[27],5.13 nM
same,IC50,[28],7.28 nM
same,IC50,[29],2.57 nM
same,IC50,[30],> 20 nM
same,IC50,[31],1.18 nM
same,IC50,[32],3.68 nM
same,IC50,[33],> 20 nM
same,IC50,[34],> 20 nM
same,IC50,[35],13.2 nM
same,IC50,[36],3.49 nM
same,IC50,[37],5.21 nM
same,IC50,[38],> 20 nM
same,IC50,[39],2.16 nM
same,IC50,[40],0.439 nM
same,IC50,[41],1.99 nM
same,IC50,[42],2.13 nM
same,IC50,[43],1.06 nM
same,IC50,[44],> 20 nM
same,IC50,[45],8.89 nM
same,IC50,[46],3.63 nM
same,IC50,[47],0.679 nM
same,IC50,[48],1.72 nM
same,IC50,[49],0.539 nM
same,IC50,[50],5.31 nM
Cc1ccc(C(=O)Nc2ccc(CN3CCN(C)CC3)c(C(F)(F)F)c2)cc1C#Cc1cnc2cccnn12 [PONATINIB],IC50,[1],> 512 nM
same,IC50,[2],> 512 nM
same,IC50,[3],> 512 nM
same,IC50,[4],> 512 nM
same,IC50,[5],173 nM
same,IC50,[6],157 nM
same,IC50,[7],> 512 nM
same,IC50,[8],> 512 nM
same,IC50,[9],> 512 nM
same,IC50,[10],> 512 nM
same,IC50,[11],> 512 nM
same,IC50,[12],> 512 nM
same,IC50,[13],416 nM
same,IC50,[14],244 nM
same,IC50,[15],> 512 nM
same,IC50,[16],283 nM
same,IC50,[17],> 512 nM
same,IC50,[18],> 512 nM
same,IC50,[19],> 512 nM
same,IC50,[20],> 512 nM
same,IC50,[21],> 512 nM
same,IC50,[22],> 512 nM
same,IC50,[23],> 512 nM
same,IC50,[24],2.59 nM
same,IC50,[25],> 512 nM
same,IC50,[26],> 512 nM
same,IC50,[27],> 512 nM
same,IC50,[28],> 512 nM
same,IC50,[29],> 512 nM
same,IC50,[30],268 nM
same,IC50,[31],> 512 nM
same,IC50,[32],> 512 nM
same,IC50,[33],> 512 nM
same,IC50,[34],> 512 nM
same,IC50,[35],> 512 nM
same,IC50,[36],< 2 nM
same,IC50,[37],> 512 nM
same,IC50,[38],> 512 nM
same,IC50,[39],> 512 nM
same,IC50,[40],> 512 nM
same,IC50,[41],189 nM
same,IC50,[42],> 512 nM
same,IC50,[43],> 512 nM
same,IC50,[44],> 512 nM
same,IC50,[45],> 512 nM
same,IC50,[46],> 512 nM
same,IC50,[47],> 512 nM
same,IC50,[48],284 nM
same,IC50,[49],421 nM
same,IC50,[50],> 512 nM
